Measured values from patent publication US6197768A, “Pyridocarbazole derivatives having cgmp-pde inhibitory activity” (Mochida Pharmaceutical Co., Ltd., priority 1996, dated 2001).
Where a name gives a salt, the structure may show the parent alone.

Tests used:
PDE type V = molecular target: T1, PDE type V (Canis lupus familiaris, UniProt O77746); test: PDE Inhibiting Activity, type V (cGMP-PDE); type: biochemical, dog (canine aorta); conditions: PDE type V from canine aorta, 1 μM substrate, pH 7.5; read-out: Inhibition Activity IC50, Type V
T1 construct: PDE was purified from the aorta in a dog; from tissue; host or cells: dog aorta
Method: (§1) On the basis of the method of Lugnier et al. (Biochem. Pharmacol., 35, 1743-1751, 1986), PDE was purified from the aorta in a dog. The canine aorta was minced and homogenized with a Waring Blender and a glass homogenizer in six volumes of a Tris-HCl buffer solution (pH 7.5, 20 mM) containing 2 mM magnesium acetate, 5 mM ethylenediaminetetraacetic acid (EDTA), 100 μg/mL of phenylmethylsulforyl fluoride and 15 mM 2-mercaptoethanol (2-ME), and centrifuged at 1200 xg for 30 min. The supernatant was separated and salted out with ammonium sulfate which was added to 45% saturation. The resulting precipitated fraction was resuspended in a Tris-HCl buffer solution (pH 7.5, 20 mM) containing 2 mM magnesium acetate and 1 mM 2-ME, dialyzed overnight and applied to a DEAE-trisacryl column (DEAE […] M:IBF). By elution with a sodium chloride gradient (0-0.4 M), PDE types V and III were separated from the other isozymes. The supernatant fraction of 45% saturated ammonium sulfate was further mixed with ammonium sulfate to 65% saturation and salted out. The resulting precipitated fraction was similarly applied to the DEAE-trisacryl column and eluted by a sodium chloride gradient (0-0.4 M) so as to separate PDE type I.
The thus obtained PDE types V, III and I were measured for their activity in accordance with the method of Thompson et al. (Adv. Cyclic Nucleotide Res., 10, 69-72, 1979) and the method of Wells et al. (Biochim. Biophys. Acta, 384, 430-443, 1975). Specifically, a purified PDE sample was added to 50 mM Tris-HCl buffer solution (pH 7.5) containing 1 μM of substrate cGMP or cAMP (containing tritium-labelled cGMP or cAMP), 1 mM EGTA and 2 mM magnesium acetate. […] The activity of each test compound was determined as a percentage of the DPE activity measured when it was added as a dimethyl sulfoxide solution (DMSO) and its IC50 (50% inhibition concentration) was calculated by the probit method. […]

PDE type III = molecular target: T2, PDE type III (Canis lupus familiaris, UniProt A0A8I3NYE0); test: PDE Inhibiting Activity, type III; type: biochemical, dog (canine aorta); conditions: PDE type III from canine aorta, 1 μM substrate, pH 7.5; read-out: Inhibition Activity IC50, Type III
T2 construct: PDE was purified from the aorta in a dog; from tissue; host or cells: dog aorta
T2 sequence (A0A8I3NYE0 1-1135): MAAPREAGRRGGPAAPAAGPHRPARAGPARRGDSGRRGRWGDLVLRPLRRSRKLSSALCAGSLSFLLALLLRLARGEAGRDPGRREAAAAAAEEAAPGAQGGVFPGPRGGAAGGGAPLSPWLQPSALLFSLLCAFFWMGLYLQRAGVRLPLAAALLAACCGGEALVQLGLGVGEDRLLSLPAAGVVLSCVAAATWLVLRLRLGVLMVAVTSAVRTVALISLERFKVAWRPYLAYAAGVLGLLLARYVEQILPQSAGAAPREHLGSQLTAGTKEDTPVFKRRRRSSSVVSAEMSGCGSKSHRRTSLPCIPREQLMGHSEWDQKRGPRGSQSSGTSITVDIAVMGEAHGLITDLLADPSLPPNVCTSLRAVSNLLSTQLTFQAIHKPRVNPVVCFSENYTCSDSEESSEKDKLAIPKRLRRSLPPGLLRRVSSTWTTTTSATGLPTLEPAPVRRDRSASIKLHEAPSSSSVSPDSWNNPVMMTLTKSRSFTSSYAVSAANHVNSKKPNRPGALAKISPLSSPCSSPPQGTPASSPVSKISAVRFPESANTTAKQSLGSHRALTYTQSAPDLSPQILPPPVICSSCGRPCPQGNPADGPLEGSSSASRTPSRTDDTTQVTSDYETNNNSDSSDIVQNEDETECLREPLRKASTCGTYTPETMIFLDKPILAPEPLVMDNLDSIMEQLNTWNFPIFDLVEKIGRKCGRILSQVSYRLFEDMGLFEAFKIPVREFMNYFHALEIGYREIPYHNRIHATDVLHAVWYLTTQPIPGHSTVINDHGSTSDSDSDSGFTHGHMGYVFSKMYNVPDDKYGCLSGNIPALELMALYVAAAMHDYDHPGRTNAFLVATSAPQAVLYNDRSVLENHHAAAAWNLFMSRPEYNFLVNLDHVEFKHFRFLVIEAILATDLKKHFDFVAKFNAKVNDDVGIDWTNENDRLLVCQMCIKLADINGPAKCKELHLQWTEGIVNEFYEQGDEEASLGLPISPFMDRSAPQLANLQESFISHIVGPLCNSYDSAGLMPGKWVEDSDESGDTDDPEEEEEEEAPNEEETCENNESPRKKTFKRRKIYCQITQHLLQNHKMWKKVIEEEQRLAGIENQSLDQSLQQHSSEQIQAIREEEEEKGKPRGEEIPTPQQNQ
Method: as §1
(§2) The thus obtained PDE types V, III and I were measured for their activity in accordance with the method of Thompson et al. (Adv. Cyclic Nucleotide Res., 10, 69-72, 1979) and the method of Wells et al. (Biochim. Biophys. Acta, 384, 430-443, 1975). Specifically, a purified PDE sample was added to 50 mM Tris-HCl buffer solution (pH 7.5) containing 1 μM of substrate cGMP or cAMP (containing tritium-labelled cGMP or cAMP), 1 mM EGTA and 2 mM magnesium acetate. For PDE activity measurement, enzymatically produced 5' GMP or 5' AMP was further hydrolyzed into guanosine or adenosine with snake venom and separated from the substrate by means of an ion-exchange resin (Dowex 1-X2), followed by measuring with a scintillation counter. The activity of each test compound was determined as a percentage of the DPE activity measured when it was added as a dimethyl sulfoxide solution (DMSO) and its IC50 (50% inhibition concentration) was calculated by the probit method. The final concentration of DMSO was adjusted to be no more than 2% in consideration of the effect on PDE activity.

PDE type I = test: PDE Inhibiting Activity, type I; type: biochemical, dog (canine aorta); conditions: PDE type I from canine aorta, 1 μM substrate, pH 7.5; read-out: Inhibition Activity IC50, Type I
Method: as §1, §2

coronary artery diameter = test: Coronary Artery Diameter Increasing Action in anesthetized dogs; type: in vivo, adult mongrel dogs; conditions: for Coronary artery diameter (relative to nitroglycerin): maximal change as ratio to 10 μg/kg nitroglycerin
Method: (§3) Adult mongrel dogs were thoracotomized under anesthesia with α-chloralose and the circumflex branch of the left coronary artery was […]; a pair of ultrasonic crystals were attached to the tunica extima for measuring the diameter of the coronary artery whereas an electromagnetic flow probe was attached to the peripheral side to measure the coronary blood flow. Nitroglycerin, dipyridamole and each test compound were administered intravenously for comparison. Each test compound was dissolved in dimethylformamide and diluted sequentially with polyethylene glycol 200 and water to give respective proportions of 20, 50 and 30% (v/v). The results are shown in Table 3, in which the maximal changes in the diameter of the coronary artery and the coronary blood flow are expressed in terms of the ratio to the respective changes caused by 10 μg/kg of nitroglycerin.

coronary blood flow = test: Coronary blood flow in anesthetized dogs; type: in vivo, adult mongrel dogs; conditions: maximal change as ratio to 10 μg/kg nitroglycerin
Method: as §3

[1] = test system: vascular smooth muscle cells isolated from aortic media; conditions: Garg et al. 1989; Nakaki et al. 1990; cited from earlier work
[2] = test system: pulmonary arterial pressure; test: Pulmonary Arterial Pressure Lowering Action in anesthetized dogs; type: in vivo, adult mongrel dogs
Method: (§4) Adult mongrel dogs were anesthetized by intramuscular administration of 20 mg/kg of ketamine and intravenous administration of 20 mL/kg of physiological saline containing 5 mg/mL of α-chloralose; under artificial respiration, the aortic pressure was measured with a catheter inserted into the femoral artery and the pulmonary arterial pressure with a Swan-Ganz catheter inserted into the pulmonary artery. Anesthesia was maintained by intravenous administration of physiological saline containing 5 mg/mL of α-chloralose at a rate of 5 mL/kg per hour. Comparison was made between nitroglycerin, nifedipine and test compounds which were administered intravenously at doses of 0.01-1 mg/kg. Each test compound was dissolved in dimethylformamide (DMF) and sequentially diluted with polyethylene glycol 200 and water to give respective proportions of 20, 50 and 30% (v/v) and administrated by injection into the right femoral vein in a volume of 0.3 mL/kg. The results are shown in Table 2 below, in which maximal percent decreases in the pulmonary arterial pressure and aortic pressure are listed to show the effectiveness of each test compound in lowering the pulmonary arterial pressure and the systemic blood pressure, respectively.

systemic blood pressure = test: Systemic blood (aortic) pressure lowering in anesthetized dogs; type: in vivo, adult mongrel dogs; conditions: Canis lupus familiaris, iv, read-out: Reduction in systemic blood pressure
Method: as §4

Row | IC50 (PDE type V) [µM] | IC50 (PDE type III) [µM] | IC50 (PDE type I) [µM] | SMILES | Coronary artery diameter (relative to nitroglycerin) (coronary artery diameter; 1 mg/kg intravenous) | Coronary blood flow (relative to nitroglycerin) (coronary blood flow; 1 mg/kg intravenous) | other results
1 |  | 7.3 | 48 | O=c1c(Cc2cccnc2)cn2c3ccccc3c3cc(O)cc1c32 [Example 155] | 1.47 | 0.79 | 
2 | 0.0043 | > 30 | > 30 | CCCOC(=O)COc1cc2c(=O)c(Cc3cccnc3)cn3c4ccc(Br)cc4c(c1)c23 [Example 7, 10-bromo-2-n-propoxycarbonylmethyloxy-5-(3-pyridylmethyl)-4H-pyrido [3,2,1-jk]carbazole-4-one] |  |  | 
3 | 0.08 | > 30 | > 30 | O=c1ccn2c3ccc(Cl)cc3c3cc(Cl)cc1c32 [Example 264, 2,10-dichlor-4H-pyrido[3,2,1-jk]carbazole-4-one] |  |  | 
4 |  |  |  | Nc1nc2c(nc(Br)n2[C@@H]2O[C@@H]3COP(=O)(O)O[C@H]3[C@H]2O)c(=O)[nH]1 [Example 8-bromo-cGMP, 8-bromo-cGMP] |  |  | proliferation of cultured vascular smooth muscle cells (in words) [1]: suppressed
5 |  |  |  | O=[N+]([O-])OCC(CO[N+](=O)[O-])O[N+](=O)[O-] [Nitroglycerin, nitroglycerin, reference compound] |  |  | inhibition in vivo at 0.01 mg/kg ([2]; Canis lupus familiaris, iv, read-out: Reduction in pulmonary arterial pressure): 19%; pulmonary arterial versus systemic blood pressure lowering (in words) ([2]; intravenous, anesthetized dogs): lowered the systemic blood pressure by greater degrees than the pulmonary arterial pressure; inhibition in vivo at 0.01 mg/kg (systemic blood pressure): 30%; proliferation of cultured vascular smooth muscle cells (in words) [1]: suppressed
6 |  | 6.9 | > 100 | O=c1ccn2c3ccc(Cl)cc3c3cccc1c32 [Example 193, 10-chloro-4H-pyrido[3,2,1-jk]carbazole-4-one] | 1.44 | 1.40 | inhibition in vivo at 0.3 mg/kg ([2]; Canis lupus familiaris, iv, 0.3 mg/kg intravenous, anesthetized dogs, maximal percent decrease, read-out: Reduction in pulmonary arterial pressure): 16%; inhibition in vivo at 0.3 mg/kg (systemic blood pressure; 0.3 mg/kg intravenous, anesthetized dogs, maximal percent decrease): 1%
7 |  |  |  | OCCN(CCO)c1nc(N2CCCCC2)c2nc(N(CCO)CCO)nc(N3CCCCC3)c2n1 [Dipyridamole, dipyridamole, reference compound] |  |  | Coronary artery diameter (relative to nitroglycerin) (coronary artery diameter; 0.03 mg/kg intravenous): 0.17; coronary artery diameter versus coronary blood flow (in words) (coronary artery diameter; intravenous, anesthetized dogs): increased more of the coronary blood flow than the coronary artery diameter; Coronary blood flow (relative to nitroglycerin) (coronary blood flow; 0.03 mg/kg intravenous): 2.66
8 |  |  |  | O=c1c(Cc2cccnc2)cn2c3cc(Br)ccc3c3cc(OCCCO)cc1c32 [Example 278, 9-bromo-2-(3-hydroxyoropyloxy)-5-(3-pyridylmethyl)-4H-pyrido[3,2,1-jk]carbazole-4-one hydrochloride] | 1.50 | 0.04 | 

Row | SMILES | IC50 (PDE type V) [µM] | IC50 (PDE type III) [µM] | IC50 (PDE type I) [µM] | Coronary artery diameter (relative to nitroglycerin) (coronary artery diameter; 1 mg/kg intravenous) | Coronary blood flow (relative to nitroglycerin) (coronary blood flow; 1 mg/kg intravenous) | other results
9 | O=C(COc1cc2c(=O)c(Cc3cccnc3)cn3c4ccc(Br)cc4c(c1)c23)OC1CCCCC1 [Example 15] | 0.045 | 15 | > 30 |  |  | 
